In patent US6583139B1, “Compounds which inhibit leukocyte adhesion mediated by VLA-4” (priority 1997, dated 2003):
Where a SMILES comes first, the peptide text is derived from it. The star is where a group is joined. Tos = Cc1ccc(S(=O)(=O)*)cc1; tBu = CC(C)(C)*

Columns and labels:
[1] = system: Experimental Autoimmune (or Allergic) Encephalomyelitis; assay: Experimental Autoimmune Encephalomyelitis (EAE) model, motor impairment; type: in vivo; conditions: rats or guinea pigs; treatment from Day 8, bid for five days, SC, PO or IP

Compound	melting point [°C]	active in EAE in vivo assay (delayed the onset of symptoms, e.g. clinical scores no greater than 2 or slowed body weight loss as compared to the control) [1]
Cc1ccc(S(=O)(=O)N[C@@H](CCC(=O)O)C(=O)N[C@@H](Cc2ccc(O)cc2)C(=O)O)cc1 [Example 30, N-(Toluene-4-sulfonyl)-L-glutamyl-L-tyrosine] (Tos-Glu-Tyr-OH)	173 to 175	
CC(C)OC(=O)[C@H](Cc1ccc(O)cc1)NC(=O)[C@@H]1CCCN1S(=O)(=O)c1cn(C)cn1 [Example 226, N-(1-Methylimidazol-4-sulfonyl)-L-prolyl-(4-hydroxyl)-L-phenylalanine isopropyl ester]	159 to 162	
Cc1ccc(S(=O)(=O)N2CCC[C@H]2C(=O)N[C@@H](Cc2ccc(OC(C)(C)C)cc2)C(=O)O)cc1 [Example 10, N-(Toluene-4-sulfonyl)-L-prolyl-4-(O-tert-butyl)-L-tyrosine] (Tos-Pro-Tyr(tBu)-OH)		active
N-(Toluene-4-sulfonyl)-L-(5,5-dimethyl) thiaprolyl-L-(N-benzyl)-histidine [Example 27]		active
Cc1ccc(S(=O)(=O)N2CCC[C@H]2C(=O)N[C@@H](Cc2ccc(NC(=O)Nc3ccc(C#N)cc3)cc2)C(=O)O)cc1 [Example 49, N-(Toluene-4-sulfonyl)-L-prolyl-L-4-[3-(4-cyanophenyl)-ureido]-phenylalanine]	163 to 165	
Cc1ccc(S(=O)(=O)N2CCC[C@H]2C(=O)N[C@@H](CC(=O)O)C(=O)O)cc1 [Example 19, N-(Toluene-4-sulfonyl)-L-prolyl-L-aspartic acid] (Tos-Pro-Asp-OH)	174 to 176	
Cc1ccc(S(=O)(=O)N2CCC[C@H]2C(=O)N[C@@H](Cc2ccc(OCCN(Cc3ccccc3)Cc3ccccc3)cc2)C(=O)O)cc1 [Example 45, N-(Toluene-4-sulfonyl)-L-prolyl-L-O-[2-(dibenzylamino)ethyl]-tyrosine]	106 to 110	
Cc1ccc(S(=O)(=O)N2CCC[C@H]2C(=O)N[C@@H](C)C(=O)O)cc1 [Example 16, N-(Toluene-4-sulfonyl)-L-prolyl-L-alanine] (Tos-Pro-Ala-OH)	160.5 to 162.5	
Cc1ccc(S(=O)(=O)N2CCC[C@H]2C(=O)N[C@@H](Cc2ccc(C(=O)N[C@@H]3Cc4ccccc4C=N3)cc2)C(=O)O)cc1 [Example 52, N-(Toluene-4-sulfonyl)-L-prolyl-L-4[(3S)-3,4-dihydro-isoquinolin-3-yl-aminocarbonyl]-phenylalanine]	145 to 150	
